{"source": "the NIST ThermoML archive (doi:10.1016/j.tca.2010.11.025)", "key": {"[1]": {"conditions": "298.15 K; 101.33 kPa; Liquid; Pycnometric method"}, "[2]": {"experiment": "refractive index (Na D-line) (dimensionless)", "conditions": "298.15 K; 101.33 kPa; Liquid; Standard Abbe refractometry"}}, "note": "Numbers after ± are expanded uncertainties.", "data": [{"smiles": "CN1CCCN(C)C1=O", "note": "[1,3-dimethyl-3,4,5,6-tetrahydro-2(1H)-pyrimidinone]", "values": [{"measurement": "mass density", "setting": "[1]", "result": "1060.06 ± 0.96", "unit": "kg/m3"}, {"measurement": "refractive index", "setting": "[2]", "result": "1.4878 ± 0.0007"}]}]}
